Measured values published in patent publication US20230250066A1, “HERBICIDAL CINNOLINE DERIVATIVES” (SYNGENTA CROP PROTECTION AG, priority 2020, published 2023).

Key:
Assay type in all cases: in vivo
Zea mays (ZEAMX) [1] = experiment: Pre-emergence herbicidal test; conditions: 1000 g/ha, evaluated after 13 days
[2] = tested on: Abutilon theophrasti (ABUTH); experiment: Pre-emergence herbicidal test; conditions: 1000 g/ha, evaluated after 13 days
[3] = tested on: Abutilon theophrasti (ABUTH); experiment: Post-emergence herbicidal test; conditions: 1000 g/ha unless otherwise stated, evaluated after 13 days
How it was run: (§1)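 Damage score (0–5; 5=81-100%, 1=10-20%, 0=0%) read 13 d after spraying. Spray: acetone/water 50:50 + 0.5% Tween 20, 1000 g/ha unless stated.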

[4] = tested on: Ipomoea hederacea (IPOHE); experiment: Post-emergence herbicidal test; conditions: 1000 g/ha unless otherwise stated, evaluated after 13 days
How it was run: as §1

[5] = tested on: Echinochloa crus-galli (ECHCG); experiment: Post-emergence herbicidal test; conditions: 1000 g/ha unless otherwise stated, evaluated after 13 days
How it was run: as §1

[6] = tested on: Amaranthus retoflexus (AMARE); experiment: Post-emergence herbicidal test; conditions: 1000 g/ha unless otherwise stated, evaluated after 13 days
How it was run: as §1

Setaria faberi (SETFA) [7] = experiment: Post-emergence herbicidal test; conditions: 1000 g/ha unless otherwise stated, evaluated after 13 days
How it was run: as §1

Zea mays (ZEAMX) [8] = experiment: Post-emergence herbicidal test; conditions: 1000 g/ha unless otherwise stated, evaluated after 13 days
How it was run: as §1

Setaria faberi (SETFA) [9] = experiment: Pre-emergence herbicidal test; conditions: 1000 g/ha, evaluated after 13 days
[10] = tested on: Echinochloa crus-galli (ECHCG); experiment: Pre-emergence herbicidal test; conditions: 1000 g/ha, evaluated after 13 days
[11] = tested on: Ipomoea hederacea (IPOHE); experiment: Pre-emergence herbicidal test; conditions: 1000 g/ha, evaluated after 13 days
[12] = tested on: Amaranthus retoflexus (AMARE); experiment: Pre-emergence herbicidal test; conditions: 1000 g/ha, evaluated after 13 days

Row | SMILES | percentage damage caused to the plant, five-point scale, ZEAMX (Zea mays (ZEAMX) [1]) | percentage damage caused to the plant, five-point scale, ABUTH [2] | percentage damage caused to the plant, ABUTH (five-point scale) [3] | percentage damage caused to the plant, IPOHE (five-point scale) [4] | percentage damage caused to the plant, ECHCG (five-point scale) [5] | percentage damage caused to the plant, AMARE (five-point scale) [6] | percentage damage caused to the plant, SETFA (five-point scale) (Setaria faberi (SETFA) [7]) | percentage damage caused to the plant, ZEAMX (five-point scale) (Zea mays (ZEAMX) [8]) | percentage damage caused to the plant, five-point scale, SETFA (Setaria faberi (SETFA) [9]) | percentage damage caused to the plant, five-point scale, ECHCG [10] | percentage damage caused to the plant, five-point scale, IPOHE [11] | percentage damage caused to the plant, five-point scale, AMARE [12]
1 | CCOC(=O)c1nn(-c2ccc(OC(F)(F)F)cc2)c2cccc(S(=O)(=O)C3CC3)c2c1=O [Compound P34, ethyl 5-cyclopropylsulfonyl-4-oxo-1-[4-(trifluoromethoxy)phenyl]cinnoline-3-carboxylate] | 0 (0=0%) | 0 (0=0%) | 0 (0=0%) | 0 (0=0%) | 0 (0=0%) | 0 (0=0%) | 0 (0=0%) | 0 (0=0%) | 0 (0=0%) | 0 (0=0%) | 0 (0=0%) | 0 (0=0%)
2 | O=C(O)c1nn(-c2ccc(OC(F)(F)F)cc2)c2cccc(S(=O)(=O)CC(F)(F)F)c2c1=O [Compound P35, 4-oxo-5-(2,2,2-trifluoroethylsulfonyl)-1-[4-(trifluoromethoxy)phenyl]cinnoline-3-carboxylic acid] | 1 (1=10-20%) | 1 (1=10-20%) | 1 (1=10-20%) | 0 (0=0%) | 1 (1=10-20%) | 1 (1=10-20%) | 2 (2=21-40%) | 1 (1=10-20%) | 0 (0=0%) | 0 (0=0%) | 0 (0=0%) | 0 (0=0%)
3 | O=C(O)c1nn(-c2ccc(OC(F)(F)F)cc2)c2cccc([S+]([O-])CC(F)(F)F)c2c1=O (stereo not drawn) [Compound P37, 4-oxo-5-(2,2,2-trifluoroethylsulfinyl)-1-[4-(trifluoromethoxy)phenyl]cinnoline-3-carboxylic acid] | 0 (0=0%) | 1 (1=10-20%) | 1 (1=10-20%) | 1 (1=10-20%) | 1 (1=10-20%) | 0 (0=0%) | 1 (1=10-20%) | 1 (1=10-20%) | 0 (0=0%) | 0 (0=0%) | 0 (0=0%) | 0 (0=0%)
4 | CCOC(=O)c1nn(-c2ccc(OC(F)(F)F)cc2)c2cccc([S+]([O-])CC(F)(F)F)c2c1=O (stereo not drawn) [Compound P38, ethyl 4-oxo-5-(2,2,2-trifluoroethylsulfinyl)-1-[4-(trifluoromethoxy)phenyl]cinnoline-3-carboxylate] | 0 (0=0%) | 0 (0=0%) | 1 (1=10-20%) | 0 (0=0%) | 0 (0=0%) | 1 (1=10-20%) | 1 (1=10-20%) | 1 (1=10-20%) | 0 (0=0%) | 0 (0=0%) | 0 (0=0%) | 0 (0=0%)
5 | CCOC(=O)c1nn(-c2ccc(OC(F)(F)F)cc2)c2cccc(SCC(F)(F)F)c2c1=O [Compound P39, ethyl 4-oxo-5-(2,2,2-trifluoroethylsulfanyl)-1-[4-(trifluoromethoxy)phenyl]cinnoline-3-carboxylate] | 0 (0=0%) | 0 (0=0%) | 1 (1=10-20%) | 1 (1=10-20%) | 0 (0=0%) | 0 (0=0%) | 0 (0=0%) | 1 (1=10-20%) | 0 (0=0%) | 0 (0=0%) | 0 (0=0%) | 1 (1=10-20%)
6 | CCOC(=O)c1nn(-c2ccc(OC(F)(F)F)cc2)c2cccc(S(=O)(=O)CC(F)(F)F)c2c1=O [Compound P40, ethyl 4-oxo-5-(2,2,2-trifluoroethylsulfonyl)-1-[4-(trifluoromethoxy)phenyl]cinnoline-3-carboxylate] | 1 (1=10-20%) | 1 (1=10-20%) | 1 (1=10-20%) | 0 (0=0%) | 1 (1=10-20%) | 1 (1=10-20%) | 1 (1=10-20%) | 1 (1=10-20%) | 1 (1=10-20%) | 0 (0=0%) | 0 (0=0%) | 0 (0=0%)
7 | CS(=O)(=O)c1cccc2c1c(=O)c(C(=O)O)nn2-c1ccc(Cl)cc1F [Compound P41, 1-(4-chloro-2-fluoro-phenyl)-5-methylsulfonyl-4-oxo-cinnoline-3-carboxylic acid] | 1 (1=10-20%) | 1 (1=10-20%) | 1 (1=10-20%) | 1 (1=10-20%) | 4 (4=61-80%) | 1 (1=10-20%) | 4 (4=61-80%) | 1 (1=10-20%) | 4 (4=61-80%) | 2 (2=21-40%) | 1 (1=10-20%) | 1 (1=10-20%)
8 | CCOC(=O)c1nn(-c2ccc(Cl)cc2F)c2cccc(S(C)(=O)=O)c2c1=O [Compound P42, ethyl 1-(4-chloro-2-fluoro-phenyl)-5-methylsulfonyl-4-oxo-cinnoline-3-carboxylate] | 0 (0=0%) | 1 (1=10-20%) | 1 (1=10-20%) | 1 (1=10-20%) | 4 (4=61-80%) | 1 (1=10-20%) | 4 (4=61-80%) | 1 (1=10-20%) | 4 (4=61-80%) | 3 (3=41-60%) | 1 (1=10-20%) | 0 (0=0%)
9 | CS(=O)(=O)c1cccc2c1c(=O)c(C(=O)O)nn2-c1ccc(Cl)cc1Cl [Compound P43, 1-(2,4-dichlorophenyl)-5-methylsulfonyl-4-oxo-cinnoline-3-carboxylic acid] | 0 (0=0%) | 0 (0=0%) | 2 (2=21-40%) | 1 (1=10-20%) | 3 (3=41-60%) | 1 (1=10-20%) | 4 (4=61-80%) | 1 (1=10-20%) | 4 (4=61-80%) | 2 (2=21-40%) | 1 (1=10-20%) | 0 (0=0%)
